Legend:
filaggrin (FLG) proteins = test: ELISA measurement of filaggrin (FLG) and filaggrin repair capacity; assay type: in vivo, human; conditions: person, vulgaris psoriasis
Text: A kit for sandwich enzyme immunoassay was used for quantitatively in vitro measuring filaggrin (FLG) proteins (gene related filaggrin) in a tissue homogenate or other body fluids.
Specifically, as for detection strength, measurement was done at a wavelength of 450 nm. Biotin-coupled polyclonal antibody specifically coupled with FLG was used, and the actual measured value of filaggrin (ng/ml frozen serum) was roughly estimated by a standard curve (FIG. 17) previously prepared with FLG standard sample.
Amongst mammal patients (human and dog etc.) having Th3 march/test animals, patients an amount of filaggrin proteins based on filaggrin (FLG) gene which is responsible gene of atopy syndrome (atopy is newly defined as atopy syndrome by the finding of filaggrin) were not detected or were detected in a small amount (deletion or mutation of filaggrin gene) were selected (Th3-FLG).
Subsequently, “zinc finger/Znf” (see Table 5 above) was administrated to the patients etc. (Th3-FLG) in which deletion etc. of filaggrin were confirmed, after which filaggrin repair activity was compared. […]
The filaggrin repair capacity (% of control) by zinc finger/Znf was calculated according to the following formula: […]

vulgaris psoriasis = test: Clinical effects in vulgaris psoriasis (Th1 disease/Th3 march); assay type: in vivo, human; conditions: person, oral 75 mg twice per day as polaprezinc, 61 days
Procedure: This example is an example of treatment of Th2 march patient from Th1 disease (psoriasis). (1) For referential example (control experiment), zinc agent (Trade name: Promac) was tried to be administrated to this patient. Since the activated TGF-β1 was as high as 9.3 ng/ml (average value of healthy subjects: 1.1 ng/ml), a novel supplement TgF was administrated to regulate TGF-β1. Thereafter, Promac was orally administrated to the adult twice per day in an amount of 75 mg per one dosage, or 1.6 mg/kg at a time after breakfast and a time before bedtime as polaprezinc. Promac was administrated for 61 days. […] (2) On the other hand, zinc finger/Znf was administrated to the patient for 74 days. This case (vulgaris psoriasis) is a disease presenting hyperkeratosis and is characterized by scale.

dog rheumatoid arthritis = test: Treatment of dog rheumatoid arthritis (plain x-ray examination, walking); assay type: in vivo
Text: FIG. 3 is a drawing showing the results of examining characteristic bone resorption in dog rheumatoid arthritis. Th3 march via zinc cell cytokine signal is marching through a route of cell surface BMP and TGF-β1. […] When the healing can be seen thereafter (FIG. 4), bone resorption and bone augmentation are equilibrated. However, TH3 vital reaction is enhanced to clinically induce atopic dermatitiss.
In FIG. 4, according to the finding of the plain x-ray examination, a bone resorption image of arthritis due to rheumatoid arthritis which is Th1 vital reactive disease (pretreatment) is shown. In the right figure of FIG. 4 showing the post-treatment, an improvement image of joint was seen when bone resorption and bone augmentation were balanced. […] According to the finding of post-treatment in the right figure of FIG. 4, incisura trochlearis in the elbow joint was visualized and significant improvement tendency was observed (Evaluation: While the dog before treatment hated going for a walk, the dog could go for a walk (about 5 minutes). It is noted that the standard walking period in the same kind of dog is within 30 minutes).

Row | Molecule | filaggrin (filaggrin (FLG) proteins; at the time after zinc agent (control experiment)) | FLA repair (filaggrin (FLG) proteins; oral 75 mg twice per day as polaprezinc, 61 days) | clinical effect (vulgaris psoriasis) | clinical effect (vulgaris psoriasis; listed as zinc agent) | walk the dog could go for (dog rheumatoid arthritis; dog after treatment, before treatment hated going for a walk, standard within 30 minutes) | bone resorption during the course of the treatment (dog rheumatoid arthritis; dog rheumatoid arthritis, FIG. 3) | hyperpermeability image due to invasion around the joint and inflammation of joint (dog rheumatoid arthritis; dog, Th1 arthritis, direct administration of 4MU within the joint, plain x-ray)
1 | NCCC(=O)[N-][C@@H](Cc1c[nH]cn1)C(=O)[O-].[Zn+2] [Promac, polaprezinc] | 0.9 ng/mL | could not be recognized | no clinical effect could be recognized | no effect |  |  | 
2 | IFN-γ: recombinant interferon-gamma used to treat dog rheumatoid arthritis (protein, UniProt P42161 24-166, looked up) Interferon gamma: QAMFFKEIENLKEYFNASNPDVSDGGSLFVDILKKWREESDKTIIQSQIVSFYLKLFDNFKDNQIIQRSMDTIKEDMLGKFLNSSTSKREDFLKLIQIPVNDLQVQRKAINELIKVMNDLSPRSNLRKRKRSQNLFRGRRASK |  |  |  |  | about 5 minutes | bone resorption is predominant | significantly improved

From patent US20140023656A1, “PHARMACEUTICAL COMPOSITION FOR TREATMENT AND PREVENTION OF TH3 MARCH-RELATED DISEASES” (BioLT CO., LTD., priority 2010, published 2014)
